Where a name gives a salt, the structure may show the parent alone.

One experiment addresses T1, TAK1-TAB1 fusion protein (Homo sapiens, UniProt O43318).
T1 construct: purchased Carna
T1 sequence (O43318 with tags, fused parts or gaps limits assumed): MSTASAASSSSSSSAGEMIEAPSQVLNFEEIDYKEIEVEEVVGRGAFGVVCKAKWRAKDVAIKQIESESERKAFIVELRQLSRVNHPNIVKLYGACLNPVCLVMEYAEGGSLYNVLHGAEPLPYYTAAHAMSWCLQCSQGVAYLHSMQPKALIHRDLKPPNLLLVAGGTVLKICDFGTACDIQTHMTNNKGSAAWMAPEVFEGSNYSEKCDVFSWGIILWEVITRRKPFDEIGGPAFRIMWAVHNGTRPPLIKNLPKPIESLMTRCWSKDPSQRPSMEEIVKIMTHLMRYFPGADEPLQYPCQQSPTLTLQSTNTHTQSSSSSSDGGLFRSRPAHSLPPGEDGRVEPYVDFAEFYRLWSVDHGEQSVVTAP
In words: TAK1 biochemical assay (AlphaScreen, GST-MAP2K7 substrate).
Settings: not given
As to `Cc1c(-c2cnc(N)c3oc(-c4csc5cnccc45)cc23)cnn1C` [Example 292, 4-(1,5-dimethyl-1H-pyrazol-4-yl)-2-thieno[2,3-c]pyridin-3-yl-furo[2,3-c]pyridin-7-ylamine], the IC50 lay within 1000 to 10000 nM.

Staying with this experiment, now noted: TAK1-TAB1 fusion protein, GST-MAP2K7 substrate; read-out: mean TAK1 IC50 (Col. A).
On to `CC(=O)N1CCC(n2cc(-c3cnc(N)c4oc(-c5ccc6c(c5)NC(=O)C6)cc34)cn2)CC1` [Example 144, 6-{4-[1-(1-acetylpiperidin-4-yl)-1H-pyrazol-4-yl]-7-aminofuro[2,3-c]pyridin-2-yl}-1,3-dihydro-2H-indol-2-one], for which the IC50 was in the range of 1000 to 10000 nM. Still for that read-out and setting: as for `N#Cc1sccc1-c1cnc(N)c2oc(-c3csc4cnccc34)cc12` [Example 384], the figure is over 10000 nM; as for `Nc1ncc(-c2ccc(C(=O)O)s2)c2cc(-c3csc4cnccc34)oc12` [Example 381, 5-(7-amino-2-thieno[2,3-c]pyridin-3-yl-furo[2,3-c]pyridin-4-yl)-thiophene-2-carboxylic acid], 1000 to 10000 nM. Still for that read-out and setting: to `Nc1ncc(-c2cnn(C3CCN(C(=O)CCC4CCCC4)CC3)c2)c2cc(-c3csc4cnccc34)oc12` [Example 335, 1-{4-[4-(7-Amino-2-thieno[2,3-c]pyridin-3-yl-furo[2,3-c]pyridin-4-yl)-pyrazol-1-yl]-piperidin-1-yl}-3-cyclopentyl-propan-1-one] belongs 1000 to 10000 nM. Still for that read-out and setting: to `CC(=O)N1CCC(n2cc(-c3cnc(N)c4oc(-c5ccc(N6CCCC6)nc5)cc34)cn2)CC1` [Example 139, 1-[4-(4-{7-amino-2-[6-(pyrrolidin-1-yl)pyridin-3-yl]furo[2,3-c]pyridin-4-yl}-1H-pyrazol-1-yl)piperidin-1-yl]ethanone] belongs over 10000 nM; to `Nc1ncc(-c2cnn(C3CCNCC3)c2)c2cc(-c3cc(F)cc(C(F)(F)F)c3)oc12` [Example 7, 2-[3-fluoro-5-(trifluoromethyl)phenyl]-4-[1-(piperidin-4-yl)-1H-pyrazol-4-yl]furo[2,3-c]pyridin-7-amine], 1000 to 10000 nM; to `CC(=O)N1CCC(n2cc(-c3cnc(N)c4oc(C5CCCC5)cc34)cn2)CC1` [Example 198, 1-{4-[4-(7-amino-2-cyclopentylfuro[2,3-c]pyridin-4-yl)-1H-pyrazol-1-yl]piperidin-1-yl}ethanone], 1000 to 10000 nM.

With `Nc1cncc(-c2cc3c(-c4cnn(C5CCNCC5)c4)cnc(N)c3o2)c1` [Example 31, 2-(5-aminopyridin-3-yl)-4-[1-(piperidin-4-yl)-1H-pyrazol-4-yl]furo[2,3-c]pyridine-7-amine], the half-maximal inhibitory concentration (IC50) was in the range of 100 to 1000 nM. On the same count and under the same terms, as for `CC(=O)N1CCC(n2cc(-c3cnc(N)c4oc(-c5cccc(OC(F)(F)F)c5)cc34)cn2)CC1` [Example 163, 1-[4-(4-{7-amino-2-[3-(trifluoromethoxy)phenyl]furo[2,3-c]pyridin-4-yl}-1H-pyrazol-1-yl)piperidin-1-yl]ethanone], the figure is 1000 to 10000 nM; as for `COC(=O)c1cc(-c2cnc(N)c3oc(-c4csc5cnccc45)cc23)cn1C` [Example 398, 4-(7-amino-2-thieno[2,3-c]pyridin-3-yl-furo[2,3-c]pyridin-4-yl)-1-methyl-1H-pyrrole-2-carboxylic acid methyl ester], 1000 to 10000 nM. Regarding `Nc1ncc(-c2cnn(C3CCNCC3)c2)c2cc(-c3cc(C(F)(F)F)cc(C(F)(F)F)c3)oc12` [Example 1, 2-{(3,5-Bis-trifluoromethyl)phenyl}-4-(1-piperidin-4-yl-1H-pyrazol-4-yl)-furo[2,3-c]pyridin-7-ylamine], the IC50 lay within 1000 to 10000 nM. Same read-out and setting: as for `Nc1cc(-c2cc3c(-c4cnn(C5CCNCC5)c4)cnc(N)c3o2)cnc1Cl` [Example 43, 2-(5-amino-6-chloropyridin-3-yl)-4-[1-(piperidin-4-yl)-1H-pyrazol-4-yl]furo[2,3-c]pyridine-7-amine], the figure is 100 to 1000 nM. On the same count and under the same terms, as for `Nc1ncc(-c2cnn([C@H]3CC[C@H](O)CC3)c2)c2cc(-c3ccc4c(c3)C(=O)NC4)oc12` [Example 403, 6-{7-amino-4-[1-(trans-4-hydroxycyclohexyl)-1H-pyrazol-4-yl]furo[2,3-c]pyridin-2-yl}-2,3-dihydro-1H-isoindol-1-one], the figure is 100 to 1000 nM. On to `Nc1ncc(-c2cnn(C3CCNCC3)c2)c2cc(-c3cccnc3)oc12` [Example 26, 4-[1-(piperidin-4-yl)-1H-pyrazol-4-yl]-2-(yridine-3-yl)furo[2,3-c]pyridine-7-amine], for which the IC50 lay in the range of 1000 to 10000 nM.

For `Nc1ncc(-c2cnn(CC(O)CO)c2)c2cc(-c3cccc4cnccc34)oc12` (stereo not drawn) [Example 66, 3-{4-[7-amino-2-(isoquinolin-5-yl)furo[2,3-c]pyridin-4-yl]-1H-pyrazol-1-yl}propane-1,2-diol], the IC50 is 1000 to 10000 nM. For the compound `CCOc1cc2c(-c3cc4c(-c5cnn(C6CCN(C(C)=O)CC6)c5)cnc(N)c4o3)csc2cn1` [Example 245, 1-(4-{4-[7-amino-2-(5-ethoxythieno[2,3-c]pyridin-3-yl)furo[2,3-c]pyridin-4-yl]-1H-pyrazol-1-yl}piperidin-1-yl)ethanone bis(trifluoroacetate)], the IC50 lay in the range of 100 to 1000 nM. The same measure, in the same setting: as for `Nc1ncc(-c2cnn(C3CCNCC3)c2)c2cc(-c3ccc4[nH]c(=O)[nH]c4c3)oc12` [Example 25, 5-{7-amino-4-[1-(piperidin-4-yl)-1H-pyrazol-4-yl]furo[2,3-c]pyridine-2-yl}-1,3-dihydro-2H-benzimidazol-2-one], the figure is 1000 to 10000 nM. Same read-out and setting: as for `CCOc1cccc(-c2cc3c(-c4cnn(C5CCN(C(C)=O)CC5)c4)cnc(N)c3o2)c1` [Example 162, 1-(4-{4-[7-amino-2-(3-ethoxyphenyl)furo[2,3-c]pyridin-4-yl]-1H-pyrazol-1-yl}piperidin-1-yl)ethanone], the figure is 1000 to 10000 nM; as for `CC(=O)N1CCC(n2cc(-c3cnc(N)c4oc(-c5cnn(Cc6ccncc6)c5)cc34)cn2)CC1` [Example 151, 1-[4-(4-{7-amino-2-[1-(pyridin-4-ylmethyl)-1H-pyrazol-4-yl]furo[2,3-c]pyridin-4-yl}-1H-pyrazol-1-yl)piperidin-1-yl]ethanone], 1000 to 10000 nM.

On to `CC(=O)N1CCC(n2cc(-c3cnc(N)c4oc(C5=CCCC5)cc34)cn2)CC1` [Example 153, 1-(4-{4-[7-amino-2-(cyclopent-1-en-1-yl)furo[2,3-c]pyridin-4-yl]-1H-pyrazol-1-yl}piperidin-1-yl)ethanone], for which the IC50 was 1000 to 10000 nM. For the compound `N#Cc1ccsc1-c1cnc(N)c2oc(-c3csc4cnccc34)cc12` [Example 383, 2-(7-amino-2-thieno[2,3-c]pyridin-3-yl-furo[2,3-c]pyridin-4-yl)-thiophene-3-carbonitrile], the IC50 is over 10000 nM. Still for that read-out and setting: as for `CC(=O)N1CCC(n2cc(-c3cnc(N)c4oc(-c5ccc(CC#N)cc5)cc34)cn2)CC1` [Example 179, (4-{4-[1-(1-acetylpiperidin-4-yl)-1H-pyrazol-4-yl]-7-aminofuro[2,3-c]pyridin-2-yl}phenyl)acetonitrile], the figure is 1000 to 10000 nM. `CC(=O)N1CCC(n2cc(-c3cnc(N)c4oc(-c5ccc6c(c5)CC(=O)N6)cc34)cn2)CC1` [Example 103, 5-{4-[1-(1-acetylpiperidin-4-yl)-1H-pyrazol-4-yl]-7-aminofuro[2,3-c]pyridin-2-yl}-1,3-dihydro-2H-indol-2-one]: the IC50 is 1000 to 10000 nM. Same read-out and setting: to `Cc1n[nH]c(C)c1-c1cnc(N)c2oc(-c3csc4cnccc34)cc12` [Example 295, 4-(3,5-dimethyl-1H-pyrazol-4-yl)-2-thieno[2,3-c]pyridin-3-yl-furo[2,3-c]pyridin-7-ylamine] belongs 1000 to 10000 nM; to `Nc1ncc(-c2cnn(C3CCNCC3)c2)c2cc(-c3cccc(OC(F)(F)F)c3)oc12` [Example 22, 4-[1-(piperidin-4-yl)-1H-pyrazol-4-yl]-2-[3-(trifluoromethoxy)phenyl]furo[2,3-c]pyridine-7-amine], over 10000 nM. On the same count and under the same terms, to `Nc1ncc(-c2cnn(C3CCNCC3)c2)c2cc(-c3cccc(Cl)c3Cl)oc12` [Example 4, 2-(2,3-dichlorophenyl)-4-[1-(piperidin-4-yl)-1H-pyrazol-4-yl]furo[2,3-c]pyridin-7-amine] belongs 1000 to 10000 nM. Still for that read-out and setting: as for `CC(=O)N1CCC(n2cc(-c3cnc(N)c4oc(-c5csc6cn(C)c(=O)cc56)cc34)cn2)CC1` [Example 244, 3-{4-[1-(1-acetylpiperidin-4-yl)-1H-pyrazol-4-yl]-7-aminofuro[2,3-c]pyridin-2-yl}-6-methylthieno[2,3-c]pyridin-5(6H)-one trifluoroacetate], the figure is 1000 to 10000 nM; as for `Cn1cc(-c2cnc(N)c3oc(-c4ccccc4)cc23)cn1` [Example 56, 4-(1-methyl-1H-pyrazol-4-yl)-2-phenylfuro[2,3-d]pyridin-7-amine], over 10000 nM. Take `Cc1nn([C@H]2CC[C@H](O)CC2)cc1-c1cnc(N)c2oc(-c3csc4cnccc34)cc12` [Example 304, 4-[4-(7-amino-2-thieno[2,3-c]pyridin-3-yl-furo[2,3-c]pyridin-4-yl)-3-methyl-pyrazol-1-yl]-cyclohexanol]: the IC50 is 1000 to 10000 nM.

As for `COc1cc(-c2cc3c(-c4cnn(C5CCN(C(C)=O)CC5)c4)cnc(N)c3o2)ccc1N` [Example 150, 1-(4-{4-[7-amino-2-(4-amino-3-methoxyphenyl)furo[2,3-c]pyridin-4-yl]-1H-pyrazol-1-yl}piperidin-1-yl)ethanone], the IC50 was in the range of 1000 to 10000 nM. Same read-out and setting: to `Nc1ncc(-c2cnn(C3CCNCC3)c2)c2cc(C3CCNCC3)oc12` [Example 54, 2-(piperidin-4-yl)-4-[1-(piperidin-4-yl)-1H-pyrazol-4-yl]furo[2,3-c]pyridin-7-amine] belongs over 10000 nM; to `Cc1nc(-c2cnc(N)c3oc(-c4csc5cnccc45)cc23)cs1` [Example 390, 4-(2-methyl-1,3-thiazol-4-yl)-2-(thieno[2,3-c]pyridin-3-yl)furo[2,3-c]pyridin-7-amine trifluoroacetate], 1000 to 10000 nM.
